Assays:
Assay in all cases: Bliss interaction score (quartile over a dose matrix) (fitness difference); higher = more antagonism (negative = synergy)
[1] = tested on: B. subtilis 168
Summary of the method: (§1)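 Each OD595 reading at entry into stationary phase was scaled to the robust mean of the untreated wells on its plate, with a ceiling of 1. These ratios define fitness, and single-drug fitness was inferred from combinations. The Bliss score compares observed fitness with the product-based expectation and is reported as quartiles across all replicate types, technical, biological and donor/recipient.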

[2] = tested on: S. aureus DSM 20231
Summary of the method: as §1

[3] = tested on: S. aureus Newman
Summary of the method: as §1

[4] = tested on: S. pneumoniae D39V
Summary of the method: as §1
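Note: first quartile when negative (synergy) and third quartile when positive (antagonism).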

`CN(C)[C@@H]1C(O)=C(C(N)=O)C(=O)[C@@]2(O)C(O)=C3C(=O)c4c(O)ccc(Cl)c4[C@@](C)(O)[C@H]3C[C@@H]12` [Clortetracycline] + CN1C2=CC=CC=C2N=C3C1=CC=CC3=O [Pyocyanin] gave a Bliss interaction score [1] of 0.0851, a Bliss interaction score [2] of 0.0397 and a Bliss interaction score [3] of -0.0515. For the same compound, the Bliss interaction score [4] was -0.0238.
Work on `CN(C)[C@@H]1C(O)=C(C(N)=O)C(=O)[C@@]2(O)C(O)=C3C(=O)c4c(O)ccc(Cl)c4[C@@](C)(O)[C@H]3C[C@@H]12` [Clortetracycline] + CN(C)C(=O)C(CCN1CCC(O)(c2ccc(Cl)cc2)CC1)(c1ccccc1)c1ccccc1 [Loperamide] yielded a Bliss interaction score [1] of -0.221, a Bliss interaction score [2] of 0.0792 and a Bliss interaction score [3] of -0.0458. For the same compound, the Bliss interaction score [4] was 0.0856.
With `CN(C)[C@@H]1C(O)=C(C(N)=O)C(=O)[C@@]2(O)C(O)=C3C(=O)c4c(O)ccc(Cl)c4[C@@](C)(O)[C@H]3C[C@@H]12` [Clortetracycline] + CN(C)c1cc(NC(=O)CNC(C)(C)C)c(O)c2c1C[C@H]1C[C@H]3[C@H](N(C)C)C(O)=C(C(N)=O)C(=O)[C@@]3(O)C(O)=C1C2=O [Tigecycline] the Bliss interaction score [1] was 0.0768, the Bliss interaction score [2] was -0.14 and the Bliss interaction score [3] was -0.0522. It also gave a Bliss interaction score [4] of -0.0325.
Compound `CN(C)[C@@H]1C(O)=C(C(N)=O)C(=O)[C@@]2(O)C(O)=C3C(=O)c4c(O)ccc(Cl)c4[C@@](C)(O)[C@H]3C[C@@H]12` [Clortetracycline] + CN(N=O)C(=O)N[C@@H](C=O)[C@@H](O)[C@H](O)[C@H](O)CO [Streptozotocin] has a Bliss interaction score [1] of 0.073, a Bliss interaction score [2] of 0.0625 and a Bliss interaction score [3] of 0.0347. The Bliss interaction score [4] was -0.0534.
Work on `CN(C)[C@@H]1C(O)=C(C(N)=O)C(=O)[C@@]2(O)C(O)=C3C(=O)c4c(O)ccc(Cl)c4[C@@](C)(O)[C@H]3C[C@@H]12` [Clortetracycline] + CN[C@@H]1[C@H](O)[C@H](NC)[C@H]2O[C@@]3(O)C(=O)C[C@@H](C)O[C@H]3O[C@@H]2[C@H]1O [Spectinomycin] yielded a Bliss interaction score [1] of -0.0478, a Bliss interaction score [2] of -0.0598 and a Bliss interaction score [3] of -0.0716. It also gave a Bliss interaction score [4] of 0.0439.
`CN(C)[C@@H]1C(O)=C(C(N)=O)C(=O)[C@@]2(O)C(O)=C3C(=O)c4c(O)ccc(Cl)c4[C@@](C)(O)[C@H]3C[C@@H]12` [Clortetracycline] + CN[C@@H]1[C@H](O[C@H]2[C@H](O[C@H]3[C@H](O)[C@@H](O)[C@H](N=C(N)N)[C@@H](O)[C@@H]3N=C(N)N)O[C@@H](C)[C@]2(O)C=O)O[C@@H](CO)[C@H](O)[C@H]1O [Streptomycin] gave a Bliss interaction score [1] of 0.156, a Bliss interaction score [2] of -0.0487 and a Bliss interaction score [3] of -0.0515. The Bliss interaction score [4] was -0.0408.
Work on `CN(C)[C@@H]1C(O)=C(C(N)=O)C(=O)[C@@]2(O)C(O)=C3C(=O)c4c(O)ccc(Cl)c4[C@@](C)(O)[C@H]3C[C@@H]12` [Clortetracycline] + CN[C@H](CC(C)C)C(=O)N[C@H]1C(=O)N[C@@H](CC(N)=O)C(=O)N[C@H]2C(=O)N[C@H]3C(=O)N[C@H](C(=O)N[C@H](C(=O)O)c4cc(O)cc(O)c4-c4cc3ccc4O)[C@H](O)c3ccc(c(Cl)c3)Oc3cc2cc(c3O[C@@H]2O[C@H](CO)[C@@H](O)[C@H](O)[C@H]2O[C@H]2C[C@](C)(N)[C@H](O)[C@H](C)O2)Oc2ccc(cc2Cl)[C@H]1O [Vancomycin] yielded a Bliss interaction score [1] of -0.0454, a Bliss interaction score [2] of -0.0315 and a Bliss interaction score [3] of 0.0562. It also gave a Bliss interaction score [4] of 0.0542.
Compound `CN(C)[C@@H]1C(O)=C(C(N)=O)C(=O)[C@@]2(O)C(O)=C3C(=O)c4c(O)ccc(Cl)c4[C@@](C)(O)[C@H]3C[C@@H]12` [Clortetracycline] + CN[C@H](CC(C)C)C(=O)N[C@H]1C(=O)N[C@@H](CC(N)=O)C(=O)N[C@H]2C(=O)N[C@H]3C(=O)N[C@H](C(=O)N[C@H](C(=O)O)c4cc(O)cc(O)c4-c4cc3ccc4O)[C@H](O[C@H]3C[C@](C)(N)[C@@H](O)[C@H](C)O3)c3ccc(c(Cl)c3)Oc3cc2cc(c3O[C@@H]2O[C@H](CO)[C@@H](O)[C@H](O)[C@H]2O[C@H]2C[C@](C)(NCc3ccc(-c4ccc(Cl)cc4)cc3)[C@@H](O)[C@H](C)O2)Oc2ccc(cc2Cl)[C@H]1O [Oritavancin] has a Bliss interaction score [1] of -0.0243, a Bliss interaction score [2] of -0.0292 and a Bliss interaction score [3] of 0.0708. For the same compound, the Bliss interaction score [4] was 0.073.
Compound `CN(C)[C@@H]1C(O)=C(C(N)=O)C(=O)[C@@]2(O)C(O)=C3C(=O)c4c(O)ccc(Cl)c4[C@@](C)(O)[C@H]3C[C@@H]12` [Clortetracycline] + CO[C@@H]1[C@@H](OC(N)=O)[C@@H](O)[C@H](Oc2ccc3c(O)c(NC(=O)c4ccc(O)c(CC=C(C)C)c4)c(=O)oc3c2C)OC1(C)C [Novobiocin] has a Bliss interaction score [1] of 0.0909, a Bliss interaction score [2] of 0.104 and a Bliss interaction score [3] of 0.0791. The Bliss interaction score [4] was 0.192.
`CN(C)[C@@H]1C(O)=C(C(N)=O)C(=O)[C@@]2(O)C(O)=C3C(=O)c4c(O)ccc(Cl)c4[C@@](C)(O)[C@H]3C[C@@H]12` [Clortetracycline] + CO[C@@]12[C@H](COC(N)=O)C3=C(C(=O)C(C)=C(N)C3=O)N1C[C@@H]1N[C@@H]12 [MitomycinC] showed a Bliss interaction score [1] of 0.0447, a Bliss interaction score [2] of -0.0551 and a Bliss interaction score [3] of 0.104. The Bliss interaction score [4] was -0.0402.

— the supplement of paper PMC10627819
